# Laboratory results reported in article PMC8187479, “Sugar phosphate activation of the stress sensor eIF2B” (Nature Communications, 2021).
# Where “and” joins values, the source holds several entries; their conditions need not be identical. Equal entries are not always repeated.
# Columns and labels:
# [1] = target: T1, eIF2Bα (Homo sapiens, UniProt Q14232); experiment: Isothermal titration calorimetry, wild-type eIF2Bα; format: binding
# T1 construct: made in house; host or cells: E. coli BL21(DE3)
# T1 sequence (Q14232 1-305): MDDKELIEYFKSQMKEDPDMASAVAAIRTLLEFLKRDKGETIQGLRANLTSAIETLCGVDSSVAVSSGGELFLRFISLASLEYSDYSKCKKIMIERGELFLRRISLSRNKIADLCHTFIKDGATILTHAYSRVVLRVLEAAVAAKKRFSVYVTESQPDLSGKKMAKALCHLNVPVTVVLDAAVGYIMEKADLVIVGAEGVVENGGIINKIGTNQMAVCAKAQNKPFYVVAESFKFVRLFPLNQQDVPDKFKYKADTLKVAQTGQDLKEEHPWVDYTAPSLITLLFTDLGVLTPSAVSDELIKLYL
# Protocol: Interactions between recombinant protein and sugar phosphates were conducted with a MicroCal PEAQ-ITC (Malvern Panalytical Inc.). Experiments were performed in 25 mM HEPES, 150 mM NaCl, pH 7.5 at 20 °C. The sugar phosphate concentration in the syringe was 1 mM or 1.5 mM, and ~3.5 μL aliquots were injected into cells containing 300 μL eIF2Bα or eIF2B(βδγε) at a concentration of 20–30 μM. The final titration curves were fitted using MicroCal ITC data analysis software, assuming a single binding site per monomer.
# [2] = target: T1, eIF2Bα; experiment: Differential scanning fluorimetry (Protein Thermal Shift), eIF2Bα Tm; format: binding; conditions: for Tm of eIF2Bα: individual replicates Rep 1-4, control without metabolite about 64.1
# How it was run: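 Human eIF2Bα at 1.5 μM was heated with Thermal Shift dye and metabolites in dose response. Tm for each condition came from Boltzmann fits of the melt curves.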
# [3] = target: T2, eIF2B in eIF2Bα^E198K HEK293T lysate (Homo sapiens, UniProt P49770+Q14232+Q9UI10, E198K); experiment: GEF activity assay with eIF2Bα E198K HEK293T lysate; format: biochemical
# T2 construct: endogenous in cells; host or cells: HEK293T, CRISPR knock-in eIF2Bα E198K (homozygous), lysate
# T2 sequence (Q14232 whole entry E198K): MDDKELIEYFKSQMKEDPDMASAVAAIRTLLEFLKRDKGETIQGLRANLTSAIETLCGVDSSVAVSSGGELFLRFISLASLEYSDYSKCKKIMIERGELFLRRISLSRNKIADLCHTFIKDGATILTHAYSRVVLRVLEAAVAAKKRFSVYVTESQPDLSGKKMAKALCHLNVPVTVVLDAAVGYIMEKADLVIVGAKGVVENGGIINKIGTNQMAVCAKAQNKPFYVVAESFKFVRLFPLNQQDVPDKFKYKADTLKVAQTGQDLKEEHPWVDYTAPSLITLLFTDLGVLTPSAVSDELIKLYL
# T2 sequence (P49770 whole entry): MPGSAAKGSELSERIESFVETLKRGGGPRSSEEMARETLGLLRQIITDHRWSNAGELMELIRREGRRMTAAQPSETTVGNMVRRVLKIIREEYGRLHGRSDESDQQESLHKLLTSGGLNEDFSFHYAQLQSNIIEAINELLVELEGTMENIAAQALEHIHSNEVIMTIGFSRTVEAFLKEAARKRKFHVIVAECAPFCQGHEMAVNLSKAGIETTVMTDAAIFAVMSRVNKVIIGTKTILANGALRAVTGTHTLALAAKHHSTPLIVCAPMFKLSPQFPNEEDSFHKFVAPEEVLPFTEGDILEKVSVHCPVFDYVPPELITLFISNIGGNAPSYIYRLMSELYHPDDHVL
# T2 sequence (Q9UI10 whole entry): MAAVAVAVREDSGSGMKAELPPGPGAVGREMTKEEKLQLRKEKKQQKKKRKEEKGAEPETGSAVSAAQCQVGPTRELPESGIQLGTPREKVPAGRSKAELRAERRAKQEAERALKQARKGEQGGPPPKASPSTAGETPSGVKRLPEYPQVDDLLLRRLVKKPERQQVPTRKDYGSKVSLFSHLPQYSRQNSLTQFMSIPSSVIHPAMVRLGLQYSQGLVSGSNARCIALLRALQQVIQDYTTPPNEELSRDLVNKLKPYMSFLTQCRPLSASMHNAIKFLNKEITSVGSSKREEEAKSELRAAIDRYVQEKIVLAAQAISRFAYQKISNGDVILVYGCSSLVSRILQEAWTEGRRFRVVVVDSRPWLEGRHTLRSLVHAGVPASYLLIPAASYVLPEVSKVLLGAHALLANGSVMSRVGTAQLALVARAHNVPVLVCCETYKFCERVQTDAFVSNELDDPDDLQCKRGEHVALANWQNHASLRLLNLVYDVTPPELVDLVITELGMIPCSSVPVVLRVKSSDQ
# T2 sequence (Q9NR50 whole entry partner): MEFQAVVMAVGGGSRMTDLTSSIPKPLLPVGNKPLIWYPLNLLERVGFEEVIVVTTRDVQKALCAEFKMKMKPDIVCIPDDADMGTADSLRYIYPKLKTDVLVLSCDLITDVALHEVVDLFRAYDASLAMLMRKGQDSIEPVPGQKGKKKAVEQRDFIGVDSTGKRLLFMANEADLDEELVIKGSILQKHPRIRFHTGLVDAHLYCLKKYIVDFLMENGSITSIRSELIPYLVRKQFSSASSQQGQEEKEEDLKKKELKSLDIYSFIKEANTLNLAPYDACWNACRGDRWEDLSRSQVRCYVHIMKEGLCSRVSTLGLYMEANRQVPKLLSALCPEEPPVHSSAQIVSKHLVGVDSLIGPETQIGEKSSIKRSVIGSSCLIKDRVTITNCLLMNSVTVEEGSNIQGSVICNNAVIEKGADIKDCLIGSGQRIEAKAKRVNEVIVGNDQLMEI
# T2 sequence (Q13144 whole entry partner): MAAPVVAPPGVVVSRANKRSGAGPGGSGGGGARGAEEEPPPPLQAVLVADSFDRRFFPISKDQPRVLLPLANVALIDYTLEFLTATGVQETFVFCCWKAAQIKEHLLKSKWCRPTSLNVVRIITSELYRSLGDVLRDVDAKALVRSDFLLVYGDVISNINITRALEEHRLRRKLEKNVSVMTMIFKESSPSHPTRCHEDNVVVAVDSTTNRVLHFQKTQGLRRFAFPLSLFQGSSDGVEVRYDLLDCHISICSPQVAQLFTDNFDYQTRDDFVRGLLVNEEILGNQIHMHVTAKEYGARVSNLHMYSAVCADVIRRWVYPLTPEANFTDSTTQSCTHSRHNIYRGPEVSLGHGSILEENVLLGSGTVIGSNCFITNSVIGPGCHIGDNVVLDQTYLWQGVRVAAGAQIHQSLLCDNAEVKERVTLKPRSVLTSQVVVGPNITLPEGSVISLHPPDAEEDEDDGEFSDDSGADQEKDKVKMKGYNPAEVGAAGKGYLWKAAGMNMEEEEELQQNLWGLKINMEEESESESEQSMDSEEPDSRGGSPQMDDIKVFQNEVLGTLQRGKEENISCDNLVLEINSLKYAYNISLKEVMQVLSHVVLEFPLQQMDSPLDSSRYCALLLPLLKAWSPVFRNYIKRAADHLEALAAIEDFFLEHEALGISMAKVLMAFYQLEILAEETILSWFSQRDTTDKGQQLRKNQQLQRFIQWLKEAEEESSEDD
# Protocol: Bodipy-FL-GDP-loaded eIF2 was used as a substrate for recombinant eIF2B. The assay was performed in 384-well plates. Reactions were read on a SpectraMax i3x plate reader (Molecular Devices) using the instrument’s Softmax Pro software with the following parameters: plate temperature = 25 °C; excitation wavelength = 485 nm (15 nm width); emission wavelength = 535 nm (25 nm width); read duration = 30 min at 45 s intervals. Data were analyzed in Prism. GDP release half-lives were calculated by fitting single-exponential decay curves.
# For unbiased screening, MIDAS metabolite libraries at 10 mM stock concentration were dispensed into wells of the assay plate using an Echo Acoustic Liquid Handler (Labcyte). In a final assay volume of 10 μL/well, the following conditions were kept constant: 25 nM Bodipy-FL-GDP-loaded eIF2, 4 nM phospho-eIF2, 0.1 mM GDP, 1 mg/mL BSA, 1 nM eIF2B, 10 μM metabolite. A single well was run for each metabolite. For targeted experiments with recombinant wild-type and mutant eIF2Bα, the following conditions were used: 50 nM Bodipy-FL-GDP-loaded eIF2, 0.1 mM GDP, 1 mg/ml BSA, 20 nM eIF2B. For targeted experiments with HEK293T lysates, the following conditions were used: 50 nM Bodipy-FL-GDP-loaded eIF2, 0.1 mM GDP, 1 mg/ml BSA, 0.1 or 0.3 mg/ml lysates.
# [4] = target: T3, eIF2B decamer in eIF2Bα^E198K HEK293T lysate (Homo sapiens, UniProt P49770+Q14232+Q9UI10, E198K); experiment: Sucrose gradient centrifugation, eIF2B complex assembly, eIF2Bα E198K HEK293T lysate; format: biochemical
# T3 construct: endogenous in cells; host or cells: HEK293T, CRISPR knock-in eIF2Bα E198K (homozygous), lysate
# T3 sequence (Q14232 whole entry E198K): as the sequence (Q14232 whole entry E198K) above
# T3 sequence (P49770 whole entry): as the sequence (P49770 whole entry) above
# T3 sequence (Q9UI10 whole entry): as the sequence (Q9UI10 whole entry) above
# T3 sequence (Q9NR50 whole entry partner): as the sequence (Q9NR50 whole entry partner) above
# T3 sequence (Q13144 whole entry partner): as the sequence (Q13144 whole entry partner) above
# Protocol: WT or eIF2Bα mutant HEK293T cells were harvested and lysed in 50 mM HEPES, 400 mM KCl, 1 mM DTT, 4 mM Mg(OAc)2, pH 7.5 + 0.5% Triton-X-100 + EDTA-free protease inhibitor cocktail (Roche) on ice for 30 min. Lysates were cleared by centrifugation at 48,000 × g, 4 °C for 30 min. 100 μL of each cleared lysate was loaded onto a 5–20% sucrose gradient prepared in a 13 × 51 mm ultracentrifuge tube using a Gradient Station (Biocomp) and centrifuged in a SW55 Ti rotor at 152,000 × g, 4 °C for 12 h. After centrifugation, 24 × 200 μL fractions were manually collected from the top to bottom of each gradient. Each fraction was subjected to methanol/chloroform precipitation and SDS-PAGE followed by Western Blot with the indicated antibodies. Blots were imaged on a ChemiDoc MP (Bio-Rad), and band intensities were quantified using the instrument’s Image Lab software. Each value was then divided by total intensity obtained across all fractions to determine percent enrichment of each subunit in each fraction.
compound,measurement,setting,value
"O=C(CO)[C@@H](O)[C@H](O)[C@H](O)COP(=O)(O)O [F6P, fructose-6-phosphate]",Kd,"[1]; ITC, wild-type eIF2Bα",9.4 ± 2.3 µM
same,"ITC binding isotherm, heat per mole of injectant",[1]; molar ratio 0.037369,-7.609 kcal/mol
same,"ITC binding isotherm, heat per mole of injectant",[1]; molar ratio 0.225339,-7.342 kcal/mol
same,"ITC binding isotherm, heat per mole of injectant",[1]; molar ratio 0.415168,-6.77 kcal/mol
same,"ITC binding isotherm, heat per mole of injectant",[1]; molar ratio 0.606855,-6.002 kcal/mol
same,"ITC binding isotherm, heat per mole of injectant",[1]; molar ratio 0.8004,-5.049 kcal/mol
same,"ITC binding isotherm, heat per mole of injectant",[1]; molar ratio 0.995804,-4.011 kcal/mol
same,"ITC binding isotherm, heat per mole of injectant",[1]; molar ratio 1.19307,-3.038 kcal/mol
same,"ITC binding isotherm, heat per mole of injectant",[1]; molar ratio 1.39219,-2.241 kcal/mol
same,"ITC binding isotherm, heat per mole of injectant",[1]; molar ratio 1.59317,-1.647 kcal/mol
same,"ITC binding isotherm, heat per mole of injectant",[1]; molar ratio 1.796,-1.223 kcal/mol
same,"ITC binding isotherm, heat per mole of injectant",[1]; molar ratio 2.0007,-0.9255 kcal/mol
same,"ITC binding isotherm, heat per mole of injectant",[1]; molar ratio 2.20725,-0.7147 kcal/mol
same,"ITC binding isotherm, heat per mole of injectant",[1]; molar ratio 2.41567,-0.5629 kcal/mol
same,"ITC binding isotherm, heat per mole of injectant",[1]; molar ratio 2.62594,-0.4515 kcal/mol
same,"ITC binding isotherm, heat per mole of injectant",[1]; molar ratio 2.83807,-0.3681 kcal/mol
same,"ITC binding isotherm, heat per mole of injectant",[1]; molar ratio 3.05206,-0.3043 kcal/mol
same,"ITC binding isotherm, heat per mole of injectant",[1]; molar ratio 3.2679,-0.2547 kcal/mol
same,"ITC binding isotherm, heat per mole of injectant",[1]; molar ratio 3.48561,-0.2155 kcal/mol
same,"ITC binding isotherm, heat per mole of injectant",[1]; molar ratio 3.70517,-0.184 kcal/mol
same,Tm of eIF2Bα,[2]; 0.33 mM metabolite,64.8334 °C and 64.3598 °C and 65.3978 °C and 64.9639 °C
same,Tm of eIF2Bα,[2]; 1 mM metabolite,66.8037 °C and 65.9412 °C and 67.2839 °C and 67.2375 °C
same,Tm of eIF2Bα,[2]; 3.3 mM metabolite,67.7489 °C and 67.4475 °C and 67.8791 °C and 67.7249 °C
same,Tm of eIF2Bα,[2]; 10 mM metabolite,69.8589 °C and 69.0448 °C and 70.0639 °C and 69.9908 °C
same,Tm shift of eIF2Bα2,[2]; largest shift seen in dose-response,6 °C
same,effect on GEF activity of eIF2Bα E198K lysate,[3],does not respond
same,eIF2B decamer formation,[4],unresponsive
